From publication PMC6348446 (Journal of Medicinal Chemistry, 2018)
Where two headings read alike, the source gives them in different places.

Columns and labels:
BRD9 = target: T1, BRD9 (Homo sapiens, UniProt Q9H8M2); assay: Western blot of BRD9 levels in HeLa cells after compound treatment; type: cell-based; conditions: 1 μM compound; for BRD9 degradation: HeLa cells; for remaining activity at 1 µM: Table 2, % of total protein remaining relative to 0.1% DMSO vehicle, HeLa cell lysates
T1 construct: Western blot analysis of BRD9 and BRD7 levels after treatment of HeLa cells; endogenous in cells; host or cells: HeLa
T1 sequence (Q9H8M2 1-597): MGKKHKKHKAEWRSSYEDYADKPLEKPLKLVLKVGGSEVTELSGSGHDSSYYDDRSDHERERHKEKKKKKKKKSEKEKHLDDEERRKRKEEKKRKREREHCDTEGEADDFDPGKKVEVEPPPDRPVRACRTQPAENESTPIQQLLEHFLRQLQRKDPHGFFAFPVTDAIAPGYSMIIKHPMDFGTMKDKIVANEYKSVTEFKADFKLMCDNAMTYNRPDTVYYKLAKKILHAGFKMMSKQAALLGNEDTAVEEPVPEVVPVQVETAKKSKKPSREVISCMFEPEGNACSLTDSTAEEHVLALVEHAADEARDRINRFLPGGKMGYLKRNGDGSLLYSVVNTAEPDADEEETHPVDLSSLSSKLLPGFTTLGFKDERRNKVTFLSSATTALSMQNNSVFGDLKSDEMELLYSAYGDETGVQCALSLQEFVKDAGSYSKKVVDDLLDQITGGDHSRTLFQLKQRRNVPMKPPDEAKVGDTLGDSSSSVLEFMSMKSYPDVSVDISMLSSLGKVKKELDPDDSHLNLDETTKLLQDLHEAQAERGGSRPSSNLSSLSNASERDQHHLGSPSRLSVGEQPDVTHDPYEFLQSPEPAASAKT

BRD7 = target: T2, BRD7 (Homo sapiens, UniProt Q9NPI1); assay: Western blot of BRD7 levels in HeLa cells after compound treatment; type: cell-based; conditions: 1 μM compound; for BRD7 degradation: HeLa cells; for remaining activity at 1 µM: Table 2, % of total protein remaining relative to 0.1% DMSO vehicle, HeLa cell lysates
T2 construct: Western blot analysis of BRD9 and BRD7 levels after treatment of HeLa cells; endogenous in cells; host or cells: HeLa
T2 sequence (Q9NPI1 1-651): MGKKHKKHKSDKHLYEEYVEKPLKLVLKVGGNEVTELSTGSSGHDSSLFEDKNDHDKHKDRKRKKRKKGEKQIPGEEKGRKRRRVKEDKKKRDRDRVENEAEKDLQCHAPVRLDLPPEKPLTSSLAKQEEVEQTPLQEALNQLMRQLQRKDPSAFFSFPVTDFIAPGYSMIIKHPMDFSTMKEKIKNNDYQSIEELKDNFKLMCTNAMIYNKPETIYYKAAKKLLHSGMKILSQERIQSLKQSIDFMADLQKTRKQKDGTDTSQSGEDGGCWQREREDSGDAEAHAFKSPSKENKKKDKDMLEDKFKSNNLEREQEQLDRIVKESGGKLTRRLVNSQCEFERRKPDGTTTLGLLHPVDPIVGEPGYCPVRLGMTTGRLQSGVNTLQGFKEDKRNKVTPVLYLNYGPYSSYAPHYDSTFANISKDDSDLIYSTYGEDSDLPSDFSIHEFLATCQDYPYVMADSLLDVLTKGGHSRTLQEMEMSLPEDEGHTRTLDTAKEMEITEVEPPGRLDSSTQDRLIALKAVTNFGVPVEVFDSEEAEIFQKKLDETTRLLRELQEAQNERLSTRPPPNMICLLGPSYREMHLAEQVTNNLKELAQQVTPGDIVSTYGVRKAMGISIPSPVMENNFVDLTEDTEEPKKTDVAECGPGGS
Description: HeLa and Hek293 cells were seeded at either 0.3 × 10^6 or 0.5 × 10^6 cells per well in 6-well plate in 2 mL of medium. At 80% confluency, cells were treated with compounds at the desired concentration, with final DMSO concentration of 0.1% v/v. Cells were incubated at 37 °C and 5% of CO2 for the desired time before harvesting. For protein extraction from adherent cells, cells were washed twice with DPBS (Gibco) and lysed with RIPA buffer (Sigma-Aldrich), supplemented with cOmplete Mini EDTA-free protease inhibitor cocktail (Roche). Insoluble material was removed by centrifugation at 14 000 rpm for 15 min at 4 °C. Supernatant was collected and protein concentration was quantified by Bradford assay (Thermo Scientific no. 23200, mean of two replicates). For RI-1 cells, (1–1.5) × 10^6 cells/mL were seeded in 6-well plate in 2 mL of medium. The day after, cells were treated with compounds at the desired concentration, with final DMSO concentration of 0.1% v/v. Before harvesting, cells were incubated at 37 °C and 5% CO2 for the desired time. Cells were washed twice with DPBS (Gibco) and lysed with RIPA buffer (Sigma-Aldrich), supplemented with cOmplete Mini EDTA-free protease inhibitor cocktail (Roche). Lysates were sonicated (10 s) and centrifuged at 14 000 rpm for 20 min at 4 °C. Supernatant was collected, and protein concentration was quantified by Bradford assay (mean of two replicates). For EOL-1 and A-204 cell line, 20 000 cells were seeded in 300 μL per well in a 24-well plate and incubated at 37 °C overnight. Compounds were added from DMSO stock solution using a digital dispenser D300 (Tecan), normalizing for added DMSO, and cells were incubated at 37 °C for 18 h. Medium was removed, and cells were washed with PBS and lysed in 80 μL of lysis buffer (1% Triton, 350 mM KCl, 10 mM Tris, pH 7,4, phosphatase-protease inhibitor cocktail (Thermo Scientific no. 1861281), 10 mM DTT, Benzonase 0.5 μL/ml (Novagen no. 70746 10KU, 25 U/μL)) for 30 min on ice before insoluble debris was pelleted by centrifugation.
Proteins were resolved by SDS–PAGE on NuPage 4–12% Bis-Tris Midi Gel (Invitrogen) and transferred to Amersham Protran 0.45 NC nitrocellulose membrane (GE Healthcare) using wet transfer. The membrane was blocked with 5% w/v milk in Tris-buffered saline (TBS) with 0.1% w/v Tween-20. The following primary antibodies at the given concentration were used: anti β-actin (Cell Signaling Technology, 4970S, 13E5) 1:2000, anti-Brd9 (Bethyl A303-781A) 1:1000, anti-Brd7 (Bethyl A302-304A) 1:1000, VHL rabbit Ab (Cell Signaling Technology, no. 68547S) 1:1000, anti-CRBN (Novus Bio, NBP 1-9-1810) 1:1000, anti-actin hFAB rhodamine antibody, Bio-Rad, no. 12004164. Following incubation with horseradish peroxidase-conjugated secondary antibody (Cell Signaling Technology) or IRDye secondary antibody (Licor), bands were developed using Amersham ECL Prime Western blotting detection kit on Amersham Hyperfilm ECL film (Amersham) or ChemiDoc imaging system (Bio-Rad). ImageJ software was used for band quantification, and the last was reported as relative amount as ratio of each protein band relative to the lane’s loading control. Then the values obtained were normalized to 0.1% DMSO vehicle control. Alternatively, protein levels were determined on a WES capillary electrophoresis instrument (Proteinsimple) using a BRD9 antibody (Bethyl A303-781A) and a GAPDH antibody (Abcam no. ab9485) for normalization. DC50 and half-lives were determined by assuming a linear model between the two data points across 50% protein level mark.

Row | BRD9 degradation (BRD9; 4 h) | BRD7 degradation (BRD7; 4 h) | remaining activity at 1 µM (BRD9; 4 h, read-out: BRD9 4 h (%)) | remaining activity at 1 µM (BRD9; 16 h, read-out: BRD9 16 h (%)) | remaining activity at 1 µM (BRD7; 4 h, read-out: BRD7 4 h (%)) | remaining activity at 1 µM (BRD7; 16 h, read-out: BRD7 16 h (%)) | BRD9 degradation (BRD9; 16 h) | BRD7 degradation (BRD7; 16 h) | Compound
1 | strong degradation | no BRD7 degradation |  |  |  |  |  |  | COc1cc(-c2cn(C)c(=O)c3cnccc23)cc(OC)c1CN1CCN(CCOCCOCCOCCOCC(=O)NCCNc2cccc3c2C(=O)N(C2CCC(=O)NC2=O)C3=O)CC1 (stereo not drawn) [Compound 8, 14-(4-(2,6-Dimethoxy-4-(2-methyl-1-oxo-1,2-dihydro-2,7-naphthyridin-4-yl)benzyl)piperazin-1-yl)-N-(2-((2-(2,6-dioxopiperidin-3-yl)-1,3-dioxoisoindolin-4-yl)amino)ethyl)-3,6,9,12-tetraoxatetradecanamide]
2 |  |  | 74% | 73% | 95% | 113% |  |  | COc1cc(-c2cn(C)c(=O)c3cnccc23)cc(OC)c1CN1CCN(C(=O)COCCOCCOCC(=O)N[C@H](C(=O)N2C[C@H](O)C[C@H]2C(=O)NCc2ccc(-c3scnc3C)cc2)C(C)(C)C)CC1 [Compound 25]
3 | strong degradation | no BRD7 degradation |  |  |  |  |  |  | COc1cc(-c2cn(C)c(=O)c3cnccc23)cc(OC)c1CN1CCN(CCOCCOCC(=O)NCCNc2cccc3c2C(=O)N(C2CCC(=O)NC2=O)C3=O)CC1 (stereo not drawn) [Compound 7, 2-(2-(2-(4-(2,6-Dimethoxy-4-(2-methyl-1-oxo-1,2-dihydro-2,7-naphthyridin-4-yl)benzyl)piperazin-1-yl)ethoxy)ethoxy)-N-(2-((2-(2,6-dioxopiperidin-3-yl)-1,3-dioxoisoindolin-4-yl)amino)ethyl)acetamide]
4 | at most 20% | at most 20% | 99% |  | 102% | 119% | ≤ 30% | ≤ 30% | COc1cc(-c2cn(C)c(=O)c3cnccc23)cc(OC)c1CN1CCN(CCOCCOCCOCCOCC(=O)N[C@H](C(=O)N2C[C@H](O)C[C@H]2C(=O)NCc2ccc(-c3scnc3C)cc2)C(C)(C)C)CC1 [Compound 6, (2S,4R)-1-((S)-2-(tert-Butyl)-17-(4-(2,6-dimethoxy-4-(2-methyl-1-oxo-1,2-dihydro-2,7-naphthyridin-4-yl)benzyl)piperazin-1-yl)-4-oxo-6,9,12,15-tetraoxa-3-azaheptadecanoyl)-4-hydroxy-N-(4-(4-methylthiazol-5-yl)benzyl)pyrrolidine-2-carboxamide]
